Data from US5068251A, “Lipoxygenase inhibiting compounds” (Abbott Laboratories, priority 1988, dated 1991).

Experiments:
[1] = test system: leukotriene biosynthesis; assay: Inhibition of leukotriene biosynthesis in vivo, rat peritoneal anaphylaxis model; conditions: 40 mg/kg i.p., 30 minutes prior to antigen challenge, peritoneal fluids collected 15 minutes after challenge, versus mean of control group
Experimental: Inhibition of the biosynthesis of leukotrienes in vivo after intraperitoneal administration of compound was determined using a rat peritoneal anaphylaxis model. In this model rats were injected intraperitoneally (ip) with rabbit antibody to bovine serum albumin (BSA) and three hours later injected ip with BSA to induce an antgen-antibody response. Rats were sacrificed 15 minutes after this challenge and the peritoneal fluids were collected and analyzed for leukotriene levels. Test compound was injected intraperitoneal 30 minutes prior to the antigen challenge. Percent inhibition values were determined by comparing the treatment group to the mean of the control group.

[2] = target: T1, 5-lipoxygenase (Rattus norvegicus, UniProt P12527); assay: Inhibition of 5-lipoxygenase activity in 20,000×g supernatant from homogenized RBL-1 cells; format: biochemical; conditions: linear regression of percentage inhibition versus log inhibitor concentration, read-out: IC50 (In vitro 5-lipoxygenase inhibitory potency)
T1 construct: 20,000×g supernatant from homogenized RBL-1 cells; endogenous in cells; host or cells: RBL-1 cells (20,000×g supernatant of the homogenate)
T1 sequence (P12527 1-673): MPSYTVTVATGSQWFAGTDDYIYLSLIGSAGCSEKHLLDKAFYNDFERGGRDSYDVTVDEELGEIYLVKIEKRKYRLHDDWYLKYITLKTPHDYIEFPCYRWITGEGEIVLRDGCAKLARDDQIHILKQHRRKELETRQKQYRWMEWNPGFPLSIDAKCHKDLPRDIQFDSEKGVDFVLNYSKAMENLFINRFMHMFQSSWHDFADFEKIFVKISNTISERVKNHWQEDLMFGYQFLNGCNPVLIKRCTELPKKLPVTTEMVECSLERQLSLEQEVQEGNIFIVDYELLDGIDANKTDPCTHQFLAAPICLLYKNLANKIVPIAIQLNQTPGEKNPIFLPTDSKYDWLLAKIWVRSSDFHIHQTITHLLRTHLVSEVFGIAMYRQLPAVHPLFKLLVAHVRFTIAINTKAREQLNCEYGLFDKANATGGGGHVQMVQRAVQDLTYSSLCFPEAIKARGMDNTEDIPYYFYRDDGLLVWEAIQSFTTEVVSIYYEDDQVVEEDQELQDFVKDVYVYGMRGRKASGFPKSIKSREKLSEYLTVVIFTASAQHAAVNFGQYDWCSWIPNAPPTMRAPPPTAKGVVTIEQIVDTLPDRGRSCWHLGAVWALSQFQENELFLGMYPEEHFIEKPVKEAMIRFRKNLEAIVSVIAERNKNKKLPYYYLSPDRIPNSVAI
Experimental: Inhibition of 5-lipoxygenase activity was determined using the 20,000×g supernatant from homogenized RBL-1 cells in a similar manner as that described by Dyer and coworkers (Dyer, R. D.; Haviv, F.; Hanel, A. M.; Bornemier, D. A.; Carter, G. W. Fed. Proc , Fed. Am. Soc. Exp. Biol. 1984, 43, 1462A).

COc1ccc2c(c1)c(CNC(=O)N(C)O)c(C)n2C(=O)c1ccc(Cl)cc1 [Example 1, N'-hydroxy-N'-methyl-N-(4'-chlorobenzoyl-5-methoxy-2-methyl-3-indolyl)methyl urea]
inhibition of leukotriene biosynthesis in vivo [1]: 81%

CC(C)Cc1ccc(C(C)NC(=O)NO)cc1 (stereo not drawn) [Example 3, N'-hydroxy-N-[l-(4-(2'methylpropyl)phenyl)ethyl]urea]
IC50 [2]: 2900 nM

CC(C)Cc1ccc(C(C)CNC(=O)NO)cc1 (stereo not drawn) [Example 4, N'-hydroxy-N-[2-(4-(2'-methylpropyl)phenyl)]urea]
IC50 [2]: 1900 nM
